According to PubChem BioAssay (NCI):
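Growth conditions: 96-well plates. Treatment: test compound, 48 hours, 5 concentrations. Analysis: linear interpolation between bracketing concentrations; unreached endpoints set to highest concentration. Definition used: TGI = concentration required for complete inhibition of growth.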

What was measured:
Experiment in all cases: inhibition of tumour cell growth, NCI panel, 48 h
786-0 renal = system: 786-0 renal
A498 renal = system: A498 renal
A549 NSCLC = system: A549 NSCLC
ACHN renal = system: ACHN renal
BT-549 breast = system: BT-549 breast
CAKI-1 renal = system: CAKI-1 renal
CCRF-CEM leukemia = system: CCRF-CEM leukemia
COLO 205 colon = system: COLO 205 colon
DU-145 prostate = system: DU-145 prostate
EKVX NSCLC = system: EKVX NSCLC
HCC-2998 colon = system: HCC-2998 colon
HCT-116 colon = system: HCT-116 colon
HCT-15 colon = system: HCT-15 colon
HL-60(TB) leukemia = system: HL-60(TB) leukemia
HOP-62 NSCLC = system: HOP-62 NSCLC
HOP-92 NSCLC = system: HOP-92 NSCLC
HS 578T breast = system: HS 578T breast
HT29 colon = system: HT29 colon
IGROV1 ovarian = system: IGROV1 ovarian
K-562 leukemia = system: K-562 leukemia
KM12 colon = system: KM12 colon
LOX IMVI melanoma = system: LOX IMVI melanoma
M14 melanoma = system: M14 melanoma
MALME-3M melanoma = system: MALME-3M melanoma
MCF7 breast = system: MCF7 breast
MDA-MB-231 breast = system: MDA-MB-231 breast
MDA-MB-435 = system: MDA-MB-435
MDA-N = system: MDA-N
MOLT-4 leukemia = system: MOLT-4 leukemia
NCI-H226 lung = system: NCI-H226 lung
NCI-H23 lung = system: NCI-H23 lung
NCI-H460 lung = system: NCI-H460 lung
NCI/ADR-RES ovarian = system: NCI/ADR-RES ovarian
OVCAR-3 ovarian = system: OVCAR-3 ovarian
OVCAR-4 ovarian = system: OVCAR-4 ovarian
OVCAR-5 ovarian = system: OVCAR-5 ovarian
OVCAR-8 ovarian = system: OVCAR-8 ovarian
PC-3 prostate = system: PC-3 prostate
RPMI-8226 leukemia = system: RPMI-8226 leukemia
SF-268 CNS = system: SF-268 CNS
SF-295 CNS = system: SF-295 CNS
SF-539 CNS = system: SF-539 CNS
SK-MEL-2 melanoma = system: SK-MEL-2 melanoma
SK-MEL-28 melanoma = system: SK-MEL-28 melanoma
SK-MEL-5 melanoma = system: SK-MEL-5 melanoma
SK-OV-3 ovarian = system: SK-OV-3 ovarian
SN12C renal = system: SN12C renal
SNB-19 CNS = system: SNB-19 CNS
SR leukemia = system: SR leukemia
T-47D breast = system: T-47D breast
TK-10 renal = system: TK-10 renal
U251 CNS = system: U251 CNS
UACC-257 melanoma = system: UACC-257 melanoma
UACC-62 melanoma = system: UACC-62 melanoma
UO-31 renal = system: UO-31 renal

**Q.** For `Cc1ccc(N2C(=O)C(O)=C(C(=O)C(C)(C)C)C2c2ccc([N+](=O)[O-])cc2)cc1` (stereo not given), which TGI (786-0 renal) is on record?
**A.** The TGI was 39.9 µM.

**Q.** And the TGI (A498 renal)?
**A.** Its TGI is 68.9 µM.

**Q.** What about the TGI (A549 NSCLC) of the same compound?
**A.** The TGI was 82.5 µM.

**Q.** And the TGI (ACHN renal)?
**A.** The TGI was 45.9 µM.

**Q.** And the TGI (BT-549 breast)?
**A.** Its TGI is 39 µM.

**Q.** What about the TGI (CAKI-1 renal) of the same compound?
**A.** The TGI was 16.5 µM.

**Q.** And the TGI (CCRF-CEM leukemia)?
**A.** The TGI was greater than 100 µM.

**Q.** And the TGI (COLO 205 colon)?
**A.** The TGI was 32.3 µM.

**Q.** What about the TGI (DU-145 prostate) of the same compound?
**A.** Its TGI is greater than 100 µM.

**Q.** What about the TGI (EKVX NSCLC) of the same compound?
**A.** The TGI was 67.1 µM.

**Q.** And the TGI (HCC-2998 colon)?
**A.** The TGI was 45.4 µM.

**Q.** What about the TGI (HCT-116 colon) of the same compound?
**A.** The TGI was 29.4 µM.

**Q.** And the TGI (HCT-15 colon)?
**A.** The TGI was 47.4 µM.

**Q.** And the TGI (HL-60(TB) leukemia)?
**A.** Its TGI is 33.9 µM.

**Q.** What about the TGI (HOP-62 NSCLC) of the same compound?
**A.** Its TGI is 49.2 µM.

**Q.** And the TGI (HOP-92 NSCLC)?
**A.** Its TGI is 59.5 µM.

**Q.** What about the TGI (HS 578T breast) of the same compound?
**A.** Its TGI is 45.3 µM.

**Q.** And the TGI (HT29 colon)?
**A.** The TGI was 37.3 µM.

**Q.** And the TGI (IGROV1 ovarian)?
**A.** Its TGI is 43.7 µM.

**Q.** And the TGI (K-562 leukemia)?
**A.** The TGI was 85.2 µM.

**Q.** What about the TGI (KM12 colon) of the same compound?
**A.** Its TGI is 67.3 µM.

**Q.** And the TGI (LOX IMVI melanoma)?
**A.** Its TGI is 36.9 µM.

**Q.** What about the TGI (M14 melanoma) of the same compound?
**A.** Its TGI is 46.2 µM.

**Q.** What about the TGI (MALME-3M melanoma) of the same compound?
**A.** The TGI was 46 µM.

**Q.** And the TGI (MCF7 breast)?
**A.** Its TGI is 37.6 µM.

**Q.** What about the TGI (MDA-MB-231 breast) of the same compound?
**A.** The TGI was 45.7 µM.

**Q.** What about the TGI (MDA-MB-435) of the same compound?
**A.** Its TGI is 44.7 µM.

**Q.** What about the TGI (MDA-N) of the same compound?
**A.** Its TGI is 69.2 µM.

**Q.** And the TGI (MOLT-4 leukemia)?
**A.** The TGI was 31.5 µM.

**Q.** What about the TGI (NCI-H226 lung) of the same compound?
**A.** Its TGI is 43.3 µM.

**Q.** What about the TGI (NCI-H23 lung) of the same compound?
**A.** The TGI was 35.2 µM.

**Q.** And the TGI (NCI-H460 lung)?
**A.** Its TGI is 30.5 µM.

**Q.** What about the TGI (NCI/ADR-RES ovarian) of the same compound?
**A.** Its TGI is 53.8 µM.

**Q.** And the TGI (OVCAR-3 ovarian)?
**A.** The TGI was 93.5 µM.

**Q.** What about the TGI (OVCAR-4 ovarian) of the same compound?
**A.** Its TGI is 22.3 µM.

**Q.** And the TGI (OVCAR-5 ovarian)?
**A.** The TGI was greater than 100 µM.

**Q.** What about the TGI (OVCAR-8 ovarian) of the same compound?
**A.** The TGI was 59.1 µM.

**Q.** What about the TGI (PC-3 prostate) of the same compound?
**A.** The TGI was greater than 100 µM.

**Q.** And the TGI (RPMI-8226 leukemia)?
**A.** The TGI was 49.4 µM.

**Q.** And the TGI (SF-268 CNS)?
**A.** Its TGI is 47.8 µM.

**Q.** What about the TGI (SF-295 CNS) of the same compound?
**A.** Its TGI is 88.8 µM.

**Q.** What about the TGI (SF-539 CNS) of the same compound?
**A.** Its TGI is 63 µM.

**Q.** What about the TGI (SK-MEL-2 melanoma) of the same compound?
**A.** Its TGI is 58.5 µM.

**Q.** What about the TGI (SK-MEL-28 melanoma) of the same compound?
**A.** Its TGI is 63.6 µM.

**Q.** And the TGI (SK-MEL-5 melanoma)?
**A.** Its TGI is 30 µM.

**Q.** What about the TGI (SK-OV-3 ovarian) of the same compound?
**A.** The TGI was 57.2 µM.

**Q.** What about the TGI (SN12C renal) of the same compound?
**A.** Its TGI is 52.8 µM.

**Q.** And the TGI (SNB-19 CNS)?
**A.** Its TGI is greater than 100 µM.

**Q.** And the TGI (SR leukemia)?
**A.** Its TGI is 24.7 µM.

**Q.** And the TGI (T-47D breast)?
**A.** Its TGI is 52.5 µM.

**Q.** And the TGI (TK-10 renal)?
**A.** Its TGI is 90.8 µM.

**Q.** And the TGI (U251 CNS)?
**A.** Its TGI is greater than 100 µM.

**Q.** What about the TGI (UACC-257 melanoma) of the same compound?
**A.** The TGI was 34.8 µM.

**Q.** What about the TGI (UACC-62 melanoma) of the same compound?
**A.** Its TGI is 37.2 µM.

**Q.** What about the TGI (UO-31 renal) of the same compound?
**A.** Its TGI is 89.3 µM.
